Experimental findings from ChEMBL document CHEMBL1146918, “Synthesis and anti-angiogenesis activity of coumarin derivatives” (Bioorg Med Chem Lett, 2006) are described below.

The subject of test [1] is HUVEC. In words: Antiproliferative activity against HUVEC cell line. The format is functional, cell-based. The conditions noted are these: Homo sapiens.
The subject of test [2] is SiHa. Put plainly: Antiproliferative activity against human SiHa cell line. The format is functional, cell-based.
For test [3], the system named is NIH3T3. Put plainly: Antiproliferative activity against mouse NIH3T3 cell line. Format: functional, cell-based.
For test [4], the system named is HeLa. Put plainly: Antiproliferative activity against human HeLa cell line. Format: functional, cell-based.
Test [5] deals with U-87 MG. In words: Antiproliferative activity against human U87 MG cell line. The format is functional, cell-based, U-87MG ATCC.
Test [6] relates to DLD-1. Put plainly: Antiproliferative activity against human DLD1 cell line. The format is functional, cell-based.
Test [7] deals with B16. In words: Antiproliferative activity against mouse B16 cell line. Format: functional, cell-based.

Broadly, the IC50 is the concentration that gives 50% inhibition.

Each structure is given as a SMILES string.

In the case of `CCN(CC)c1ccc2cc(-c3nc4ccccc4s3)c(=O)oc2c1`, the half-maximal inhibitory concentration (IC50) in test [1], in test [2], in test [3], in test [4], in test [5] and in test [6] (read-out: IC50) was greater than 70 µM throughout. Besides, the 50% inhibitory concentration (IC50) in test [7] was greater than 70 µM.
As to `O=Cc1cc2c3c(c1O)CCCN3CCC2`, the IC50 is 35.4 µM in test [1]; greater than 70 µM in test [2]; greater than 70 µM in test [3]; greater than 70 µM in test [4]; greater than 70 µM in test [5]; greater than 70 µM in test [6] (read-out: IC50). Further, the half-inhibitory concentration (IC50) in test [7] is greater than 70 µM.
For the compound `O=c1oc2c3c4c(cc2cc1-c1nc2ccccc2[nH]1)CCCN4CCC3`, the IC50 in test [1] stood at 3.3 µM; in test [2], 14.6 µM; in test [3], 41.4 µM; in test [4] it was 11.6 µM; in test [5], 33.4 µM; in test [6] (read-out: IC50), 35.2 µM. This compound also displayed an IC50 in test [7] of 8.9 µM.
`CCN(CC)c1ccc2c(C#N)c(-c3nc4ccccc4s3)c(=O)oc2c1`: the IC50 in test [1] was 4.8 µM; in test [2], greater than 70 µM; in test [3], greater than 70 µM; in test [4], greater than 70 µM; in test [5], greater than 70 µM; in test [6] (read-out: IC50), greater than 70 µM. The same compound returned a 50% inhibitory concentration (IC50) in test [7] greater than 70 µM.
For `O=c1oc2c3c4c(cc2cc1[N+](=O)[O-])CCCN4CCC3`, the IC50 in test [1], in test [2], in test [3], in test [4], in test [5] and in test [6] (read-out: IC50) was greater than 70 µM each time. In test [7], this compound returned an IC50 greater than 70 µM.
On to `CCN(CC)c1ccc2cc(-c3nc4ccccc4[nH]3)c(=O)oc2c1`, for which the IC50 in test [1] was 9.6 µM; in test [2], 62.1 µM; in test [3], 9.3 µM; in test [4], greater than 70 µM; in test [5] it was 15 µM; in test [6] (read-out: IC50), greater than 70 µM. Further, in test [7], the IC50 stood at 12.6 µM.
Regarding `CCN(CC)c1ccc2cc(C(C)=O)c(=O)oc2c1`, the IC50 in test [1], in test [2], in test [3], in test [4], in test [5] and in test [6] (read-out: IC50) was greater than 70 µM each time. Besides, the IC50 in test [7] is greater than 70 µM.
With `CC(=O)O[C@H]1C(=O)[C@@]2(C)[C@H]([C@H](OC(=O)c3ccccc3)[C@]3(O)C[C@H](OC(=O)[C@H](O)[C@@H](NC(=O)c4ccccc4)c4ccccc4)C(C)=C1C3(C)C)[C@]1(OC(C)=O)CO[C@@H]1C[C@@H]2O` [PACLITAXEL], the IC50 is 0.06 µM in test [1]; 3.5 µM in test [2]; 1.29 µM in test [3]; 0.47 µM in test [4]; 0.08 µM in test [5]; 0.09 µM in test [6]. In addition, the concentration for half-maximal inhibition (IC50) in test [7] worked out at 0.08 µM.
